As a reminder, the IC50 is the concentration that inhibits the measured activity by half.

Test [1] concerns KARPAS-299. Kind of test: cells. Particulars: Homo sapiens, KARPAS-299, 72 h.
Description: Antiproliferative activity against human KARPAS299 cells expressing NMP-ALK assessed as reduction in cell viability incubated for 72 hrs by MTT assay
The next test has as its system NCI-H2228. Kind of test: cells. Particulars: Homo sapiens, NCI-H2228, 72 h.
A short description of another test: cells. Particulars: Homo sapiens, SKNBE2, 72 h.
The next test deals with SH-SY5Y. Kind of test: cells. Particulars: Homo sapiens, 72 h.
In test [2] the test system is KARPAS-299. Kind of test: Cell cycle arrest in human KARPAS299 cells expressing […] assessed as accumulation of cells at G2 phase at 1 uM incubated for 48 hrs by propidium iodide staining based flow cytometry (reference value: 3.68%). In kind it is functional. (In general: In flow cytometry, cells or beads pass a laser one at a time.)
For test [3], the system named is KARPAS-299. Kind of test: Cell cycle arrest in human KARPAS299 cells expressing […] assessed as accumulation of cells at G1 phase at 1 uM incubated for 48 hrs by propidium iodide staining based flow cytometry (reference value: 58.94%). Type of test: functional.
Test [4] deals with KARPAS-299. Kind of test: Cell cycle arrest in human KARPAS299 cells expressing […] assessed as accumulation of cells at S phase at 1 uM incubated for 48 hrs by propidium iodide staining based flow cytometry (reference value: 28.83%). In kind it is functional.
Test [5] concerns the target Proto-oncogene tyrosine-protein kinase ROS (Homo sapiens, UniProt P08922). Kind of test: Inhibition of recombinant human N-terminal GST-tagged ROS (1883 to 2347 residues) expressed in baculovirus expression system using IRS1 as substrate incubated with enzyme and substrate for 5 mins followed by ATP addition followed by further incubation for 30 mins by HTRF assay.

Proto-oncogene tyrosine-protein kinase ROS, sequence (P08922 whole entry, the tested form may be a part): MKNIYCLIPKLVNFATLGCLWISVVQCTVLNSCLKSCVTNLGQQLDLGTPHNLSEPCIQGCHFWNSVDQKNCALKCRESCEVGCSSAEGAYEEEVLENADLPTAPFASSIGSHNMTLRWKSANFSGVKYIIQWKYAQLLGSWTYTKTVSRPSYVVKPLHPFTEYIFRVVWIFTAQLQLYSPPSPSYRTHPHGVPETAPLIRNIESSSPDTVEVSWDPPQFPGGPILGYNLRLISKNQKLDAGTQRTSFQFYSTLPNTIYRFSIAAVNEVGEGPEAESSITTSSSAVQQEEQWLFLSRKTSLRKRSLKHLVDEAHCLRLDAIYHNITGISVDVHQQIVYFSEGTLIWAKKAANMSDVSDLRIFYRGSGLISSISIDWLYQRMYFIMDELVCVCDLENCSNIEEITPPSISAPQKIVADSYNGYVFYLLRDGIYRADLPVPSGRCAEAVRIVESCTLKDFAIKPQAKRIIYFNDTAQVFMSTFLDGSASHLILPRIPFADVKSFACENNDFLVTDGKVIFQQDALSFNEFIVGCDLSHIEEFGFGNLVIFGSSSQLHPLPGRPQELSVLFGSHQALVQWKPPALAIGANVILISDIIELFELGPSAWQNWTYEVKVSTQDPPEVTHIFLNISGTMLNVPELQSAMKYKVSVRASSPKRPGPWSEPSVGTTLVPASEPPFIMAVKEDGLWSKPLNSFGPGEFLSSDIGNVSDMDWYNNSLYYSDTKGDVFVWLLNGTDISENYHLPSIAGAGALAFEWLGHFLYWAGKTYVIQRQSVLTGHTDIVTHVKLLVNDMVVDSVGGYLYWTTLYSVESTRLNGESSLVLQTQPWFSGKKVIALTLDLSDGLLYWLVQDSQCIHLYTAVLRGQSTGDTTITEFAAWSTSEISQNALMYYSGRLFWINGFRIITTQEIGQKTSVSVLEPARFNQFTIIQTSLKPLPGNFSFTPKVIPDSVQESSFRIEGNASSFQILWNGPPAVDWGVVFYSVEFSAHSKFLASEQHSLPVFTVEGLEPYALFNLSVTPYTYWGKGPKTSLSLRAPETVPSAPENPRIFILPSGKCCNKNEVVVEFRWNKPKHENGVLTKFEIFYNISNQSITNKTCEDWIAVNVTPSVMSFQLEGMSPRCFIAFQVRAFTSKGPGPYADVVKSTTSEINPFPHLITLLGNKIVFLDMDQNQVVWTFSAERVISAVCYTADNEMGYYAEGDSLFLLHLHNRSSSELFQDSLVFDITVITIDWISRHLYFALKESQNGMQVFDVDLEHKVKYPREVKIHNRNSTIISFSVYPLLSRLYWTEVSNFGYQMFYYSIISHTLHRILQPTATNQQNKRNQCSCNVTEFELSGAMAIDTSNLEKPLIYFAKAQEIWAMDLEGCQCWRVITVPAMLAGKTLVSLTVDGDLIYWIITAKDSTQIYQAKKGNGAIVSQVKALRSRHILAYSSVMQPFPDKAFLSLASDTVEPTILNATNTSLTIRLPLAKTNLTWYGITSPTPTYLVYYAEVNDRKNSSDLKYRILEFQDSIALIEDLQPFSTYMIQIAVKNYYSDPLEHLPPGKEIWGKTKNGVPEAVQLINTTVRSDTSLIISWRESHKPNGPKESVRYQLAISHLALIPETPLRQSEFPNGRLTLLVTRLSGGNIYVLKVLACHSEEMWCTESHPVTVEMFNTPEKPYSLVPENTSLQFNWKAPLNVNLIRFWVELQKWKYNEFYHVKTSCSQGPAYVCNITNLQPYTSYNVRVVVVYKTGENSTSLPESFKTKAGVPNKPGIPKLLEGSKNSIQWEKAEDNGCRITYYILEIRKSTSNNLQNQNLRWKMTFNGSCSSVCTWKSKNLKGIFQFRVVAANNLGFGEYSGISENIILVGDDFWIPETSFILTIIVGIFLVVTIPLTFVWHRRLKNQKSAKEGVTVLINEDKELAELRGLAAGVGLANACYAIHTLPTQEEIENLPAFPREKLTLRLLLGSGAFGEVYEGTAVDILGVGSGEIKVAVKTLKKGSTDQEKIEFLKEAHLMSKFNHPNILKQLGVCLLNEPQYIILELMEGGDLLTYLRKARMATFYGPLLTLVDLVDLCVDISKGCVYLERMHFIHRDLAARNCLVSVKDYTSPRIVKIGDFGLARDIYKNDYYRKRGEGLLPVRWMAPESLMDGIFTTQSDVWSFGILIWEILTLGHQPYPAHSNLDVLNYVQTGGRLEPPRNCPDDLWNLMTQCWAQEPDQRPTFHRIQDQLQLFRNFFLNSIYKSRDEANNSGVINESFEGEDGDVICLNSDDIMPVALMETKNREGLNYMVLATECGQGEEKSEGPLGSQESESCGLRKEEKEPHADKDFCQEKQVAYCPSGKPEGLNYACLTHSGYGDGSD
Description for NCI-H2228: Antiproliferative activity against human NCI-H2228 cells expressing EML4-ALK assessed as reduction in cell viability incubated for 72 hrs by MTT assay
Description for SH-SY5Y: Antiproliferative activity against human SH-SY5Y cells expressing ALK F1174L mutant assessed as reduction in cell viability incubated for 72 hrs by MTT assay

Take `C[C@@H](Sc1cc(-c2ccn(Cc3ccccc3)c(=O)c2)cnc1N)c1c(Cl)ccc(F)c1Cl`: in the test on KARPAS-299 [1], inhibition was half-maximal at 790 nM (IC50).

With `C[C@@H](Oc1cc(-c2cc[nH]c(=O)c2)cnc1N)c1c(Cl)ccc(F)c1Cl`, the IC50 in the test on NCI-H2228 stood at 640 nM; in “cells”, 750 nM; with SH-SY5Y it was 2070 nM; with KARPAS-299 [1], 50 nM.

On to `CC(Oc1cc(-c2cc[nH]c(=O)c2)cnc1N)c1ccccc1` (stereo not given), for which the IC50 in the test on KARPAS-299 [1] was 4400 nM.

As to `CC(Oc1cc(-c2ccn(C)c(=O)c2)cnc1N)c1ccccc1` (stereo not given), in the test with KARPAS-299 [1], inhibition was half-maximal at 2860 nM (IC50).

Regarding `C[C@@H](Sc1cc(-c2cc[nH]c(=O)c2)cnc1N)c1c(Cl)ccc(F)c1Cl`, in the test on KARPAS-299 [1], it took 720 nM to reach half-maximal inhibition (IC50).

On to `CCn1ccc(-c2cnc(N)c(O[C@H](C)c3c(Cl)ccc(F)c3Cl)c2)cc1=O`, for which the IC50 was found to be 1200 nM with NCI-H2228, 1440 nM in the test “cells”, 2510 nM in the test with SH-SY5Y and 60 nM with KARPAS-299 [1].

In the case of `CC(Oc1cc(-c2ccn(C)c(=O)c2)cnc1N)c1ccncc1` (stereo not given), the IC50 with KARPAS-299 [1] is > 20000 nM.

With `C[C@@H](Sc1cc(-c2ccn(CCN(C)C)c(=O)c2)cnc1N)c1c(Cl)ccc(F)c1Cl`, the IC50 in the test on KARPAS-299 [1] turned out to be 280 nM.

On to `CCCn1ccc(-c2cnc(N)c(O[C@H](C)c3c(Cl)ccc(F)c3Cl)c2)cc1=O`, for which the IC50 was 1220 nM with NCI-H2228, 1430 nM in the test “cells”, 2150 nM with SH-SY5Y and 110 nM in the test with KARPAS-299 [1].

`CC(NC(=O)c1cc(-c2ccn(C)c(=O)c2)cnc1N)c1c(Cl)ccc(F)c1Cl` (stereo not given): in the test with KARPAS-299 [1], the IC50 was > 20000 nM.

`Cc1ccc(C(C)Oc2cc(-c3ccn(C)c(=O)c3)cnc2N)cc1` (stereo not given) registered an IC50 in the test with KARPAS-299 [1] of 7780 nM.

In the case of `CC(NC(=O)c1cc(-c2cc[nH]c(=O)c2)cnc1N)c1c(Cl)ccc(F)c1Cl` (stereo not given), in the test with KARPAS-299 [1], the IC50 was > 20000 nM.

The molecule `C[C@@H](Sc1cc(-c2ccn(C)c(=O)c2)cnc1N)c1c(Cl)ccc(F)c1Cl` came in with an IC50 in the test with KARPAS-299 [1] of 400 nM.

As for `C[C@@H](Oc1cc(-c2ccn(Cc3ccccc3)c(=O)c2)cnc1N)c1c(Cl)ccc(F)c1Cl`, the IC50 in the test on NCI-H2228 stood at 1300 nM; in “cells”, 1020 nM; in the test with SH-SY5Y it was 1350 nM; in the test with KARPAS-299 [1], 130 nM.

Turning to `Cc1ccc(C(C)Oc2cc(-c3cc[nH]c(=O)c3)cnc2N)cc1` (stereo not given), inhibition in the test on KARPAS-299 [1] was half-maximal at 10200 nM (IC50).

The molecule `CC(Oc1cc(-c2ccn(C)c(=O)c2)cnc1N)c1ccc(Cl)cc1` (stereo not given) had an IC50 in the test on KARPAS-299 [1] of 20900 nM.

Take `C[C@@H](Oc1cc(-c2ccn(CCN(C)C)c(=O)c2)cnc1N)c1c(Cl)ccc(F)c1Cl`: the figures for the Activity with KARPAS-299 [2], in the test with KARPAS-299 [3] and with KARPAS-299 [4] were 5.43%, 81.46% and 8%, respectively. Also, the IC50 in the test on NCI-H2228 stood at 440 nM; in “cells”, 710 nM; in test [5] it was 2.3 nM; in the test with SH-SY5Y, 1670 nM; with KARPAS-299 [1] it was 40 nM.

In turn, `CC(Oc1cc(-c2ccn(C)c(=O)c2)cnc1N)c1ccccn1` (stereo not given) returned an IC50 with KARPAS-299 [1] of 11900 nM.

As to `CCOC(=O)Cn1ccc(-c2cnc(N)c(O[C@H](C)c3c(Cl)ccc(F)c3Cl)c2)cc1=O`, the IC50 with NCI-H2228 worked out at 3320 nM; in “cells”, 1230 nM; with SH-SY5Y, 1850 nM; in the test with KARPAS-299 [1], 210 nM.

With `CC(Oc1cc(-c2cc[nH]c(=O)c2)cnc1N)c1ccc(Cl)cc1` (stereo not given), 17800 nM corresponded to half-maximal inhibition with KARPAS-299 [1] (IC50).

As for `C[C@@H](Oc1cc(-c2ccn(C)c(=O)c2)cnc1N)c1c(Cl)ccc(F)c1Cl`, the IC50 amounted to 690 nM in the test with NCI-H2228, 830 nM in “cells”, 1870 nM with SH-SY5Y and 40 nM in the test on KARPAS-299 [1].

As for `CC(Oc1cc(-c2ccn(C)c(=O)c2)cnc1N)c1cccnc1` (stereo not given), the IC50 in the test with KARPAS-299 [1] was determined as 11200 nM.

The molecule `CC(Oc1cc(-c2ccn(Cc3ccccc3)c(=O)c2)cnc1N)c1c(Cl)ccc(F)c1Cl` (racemic) registered an IC50 with KARPAS-299 [1] of 320 nM.

In the test with KARPAS-299 [1], `CC(Oc1cc(-c2ccn(C)c(=O)c2)cnc1N)c1c(Cl)ccc(F)c1Cl` (racemic) returned an IC50 of 200 nM.

Turning to `CC(Oc1cc(-c2cc[nH]c(=O)c2)cnc1N)c1c(Cl)ccc(F)c1Cl` (racemic), the IC50 in the test on KARPAS-299 [1] came out at 120 nM.

These data come from ChEMBL document CHEMBL4406858, “Discovery of 2-aminopyridines bearing a pyridone moiety as potent ALK inhibitors to overcome the crizotinib-resistant mutants” (Eur J Med Chem, 2019).
